Test results from article PMC10178848, “Modulating fast skeletal muscle contraction protects skeletal muscle in animal models of Duchenne muscular dystrophy” (The Journal of Clinical Investigation, 2023).

Test system: GRMD plasma proteins
Format: in vivo, dog
Conditions: EDG-5506 treatment to GRMD baseline; Increased in GRMD

Compound: O=c1ccc(-c2cnc(OCC(F)(F)F)nc2)nn1Cc1cncc(F)c1 [EDG-5506]
- Change from GRMD Baseline (fraction): Annexin A6 (ANXA6): -0.2759 fraction
- Change from GRMD Baseline (fraction): Anterior gradient protein 2 homolog (AGR2): -0.0848 fraction
- Change from GRMD Baseline (fraction): Apolipoprotein E (APOE): -0.1554 fraction
- Change from GRMD Baseline (fraction): Apolipoprotein E (isoform E3) (APOE): 0.0588 fraction
- Change from GRMD Baseline (fraction): Apolipoprotein E (isoform E4) (APOE): -0.0389 fraction
- Change from GRMD Baseline (fraction): Apoptosis regulator Bcl-2 (BCL2): -0.1414 fraction
- Change from GRMD Baseline (fraction): Artemin (ARTN): -0.0443 fraction
- Change from GRMD Baseline (fraction): Arylsulfatase B (ARSB): -0.0585 fraction
- Change from GRMD Baseline (fraction): B-cell receptor CD22 (CD22): -0.1198 fraction
- Change from GRMD Baseline (fraction): Baculoviral IAP repeat-containing protein 5 (BIRC5): -0.1027 fraction
- Change from GRMD Baseline (fraction): Basal Cell Adhesion Molecule (BCAM): -0.0829 fraction
- Change from GRMD Baseline (fraction): Bcl-2-like protein 1 (BCL2L1): -0.0786 fraction
- Change from GRMD Baseline (fraction): Bone sialoprotein 2 (IBSP): -0.0968 fraction
- Change from GRMD Baseline (fraction): C-C motif chemokine 13 (CCL13): -0.0908 fraction
- Change from GRMD Baseline (fraction): C-C motif chemokine 23 (CCL23): -0.0571 fraction
- Change from GRMD Baseline (fraction): CCAAT/enhancer-binding protein beta (CEBPB): -0.0589 fraction
- Change from GRMD Baseline (fraction): CD59 glycoprotein (CD59): -0.0497 fraction
- Change from GRMD Baseline (fraction): Calcineurin (PPP3CA PPP3R1): -0.2961 fraction
- Change from GRMD Baseline (fraction): Calcineurin subunit B type 1 (PPP3R1): -0.1572 fraction
- Change from GRMD Baseline (fraction): Calcium/calmodulin-dependent protein kinase type 1 (CAMK1): -0.1284 fraction
- Change from GRMD Baseline (fraction): Calcium/calmodulin-dependent protein kinase type 1D (CAMK1D): -0.0749 fraction
- Change from GRMD Baseline (fraction): Calcium/calmodulin-dependent protein kinase type II subunit alpha (CAMK2A): -0.4545 fraction
- Change from GRMD Baseline (fraction): Calcium/calmodulin-dependent protein kinase type II subunit beta (CAMK2B): -0.4519 fraction
- Change from GRMD Baseline (fraction): Calcium/calmodulin-dependent protein kinase type II subunit delta (CAMK2D): -0.3407 fraction
- Change from GRMD Baseline (fraction): Calpain I (CAPN1 CAPNS1): -0.011 fraction
- Change from GRMD Baseline (fraction): Calpastatin (CAST): -0.036 fraction
- Change from GRMD Baseline (fraction): Carbonic anhydrase 3 (CA3): -0.4126 fraction
- Change from GRMD Baseline (fraction): Cardiotrophin-1 (CTF1): -0.0756 fraction
- Change from GRMD Baseline (fraction): Catalase (CAT): -0.1548 fraction
- Change from GRMD Baseline (fraction): Choline/ethanolamine kinase (CHKB): -0.0698 fraction
- Change from GRMD Baseline (fraction): Chymase (CMA1): -0.0479 fraction
- Change from GRMD Baseline (fraction): Clusterin (CLU): -0.1079 fraction
- Change from GRMD Baseline (fraction): Complement component C6 (C6): 0.1732 fraction
- Change from GRMD Baseline (fraction): Complement component C8 (C8A C8B C8G): -0.1065 fraction
- Change from GRMD Baseline (fraction): Complement factor D (CFD): -0.1183 fraction
- Change from GRMD Baseline (fraction): Creatine kinase M-type (CKM): -0.3439 fraction
- Change from GRMD Baseline (fraction): Creatine kinase M-type:Creatine kinase B-type heterodimer (CKB CKM): -0.3657 fraction
- Change from GRMD Baseline (fraction): Cyclin-dependent kinase inhibitor 1B (CDKN1B): -0.1686 fraction
- Change from GRMD Baseline (fraction): Cysteine and glycine-rich protein 3 (CSRP3): -0.0108 fraction
- Change from GRMD Baseline (fraction): Cytochrome c (CYCS): -0.561 fraction
- Change from GRMD Baseline (fraction): DNA repair protein RAD51 homolog 1 (RAD51): -0.1205 fraction
- Change from GRMD Baseline (fraction): Desmoglein-1 (DSG1): -0.0821 fraction
- Change from GRMD Baseline (fraction): Dickkopf-like protein 1 (DKKL1): -0.0601 fraction
- Change from GRMD Baseline (fraction): Down syndrome cell adhesion molecule (DSCAM): -0.0864 fraction
- Change from GRMD Baseline (fraction): Dual specificity mitogen-activated protein kinase kinase 1 (MAP2K1): -0.3654 fraction
- Change from GRMD Baseline (fraction): Dual specificity protein phosphatase 3 (DUSP3): -0.3709 fraction
- Change from GRMD Baseline (fraction): Dynein light chain roadblock-type 1 (DYNLRB1): -0.5348 fraction
- Change from GRMD Baseline (fraction): Ectonucleoside triphosphate diphosphohydrolase 1 (ENTPD1): -0.1101 fraction
- Change from GRMD Baseline (fraction): Endothelin-converting enzyme 1 (ECE1): -0.1039 fraction
- Change from GRMD Baseline (fraction): Ephrin type-A receptor 1 (EPHA1): -0.0912 fraction
- Change from GRMD Baseline (fraction): Ephrin type-B receptor 6 (EPHB6): 0.1966 fraction
- Change from GRMD Baseline (fraction): Epidermal growth factor (EGF): -0.0588 fraction
- Change from GRMD Baseline (fraction): Epidermal growth factor receptor variant III (EGFR): -0.052 fraction
- Change from GRMD Baseline (fraction): Erythropoietin receptor (EPOR): -0.0772 fraction
- Change from GRMD Baseline (fraction): Estrogen receptor (ESR1): -0.0792 fraction
- Change from GRMD Baseline (fraction): Eukaryotic translation initiation factor 4H (EIF4H): -0.4334 fraction
- Change from GRMD Baseline (fraction): Eukaryotic translation initiation factor 4 gamma 2 (EIF4G2): -0.3268 fraction
- Change from GRMD Baseline (fraction): Extracellular matrix protein 1 (ECM1): -0.1471 fraction
- Change from GRMD Baseline (fraction): Fibroblast growth factor 8 isoform B (FGF8): -0.0878 fraction
- Change from GRMD Baseline (fraction): Fibroblast growth factor 9 (FGF9): -0.0286 fraction
